{"source": "paper PMC8719067", "about": "(Haematologica, 2021)", "key": {"[1]": {"tested_on": "B-cell lines or primary CLL cells", "conditions": "cited from earlier work"}, "[2]": {"tested_on": "MEC-1 cells overexpressing BTKWT", "test": "reverse-phase protein array", "conditions": "RPPA; for decrease in phospho-ERK: BTKWT cells"}, "[3]": {"tested_on": "MEC-1 cells", "test": "cell cycle profile", "type": "cell-based", "conditions": "MEC-1, 24 hours"}, "[4]": {"tested_on": "chronic lymphocytic leukemia", "conditions": "patients with CLL, median of 3.4 years of follow-up; cited from earlier work"}, "[5]": {"tested_on": "MEC-1 cells with either wild-type or mutant BTK", "test": "reverse-phase protein array", "conditions": "RPPA"}, "[6]": {"tested_on": "MEC-1 cells", "test": "cell death", "type": "cell-based", "conditions": "MEC-1, 1, 24 hours"}, "[7]": {"tested_on": "BCR pathway in primary CLL cells", "test": "immunoblot of BCR pathway proteins in primary CLL cells", "type": "cell-based, human", "conditions": "BTKWT and BTKT474F (gate-keeper mutation)"}, "[8]": {"tested_on": "PLCg2 phosphorylation in Ramos Burkitt lymphoma cells", "test": "phospho-PLCg2 inhibition in the Ramos cell line", "type": "cell-based", "conditions": "Homo sapiens, read-out: IC50 of inhibition of PLCg2 phosphorylation"}, "[9]": {"tested_on": "B-cell malignancies", "conditions": "phase 1b clinical trial; cited from earlier work"}}, "data": [{"smiles": "CC#CC(=O)N1CCC[C@H]1c1nc(-c2ccc(C(=O)Nc3ccccn3)cc2)c2c(N)nccn12", "note": "[acalabrutinib]", "values": [{"measurement": "cell death induced in vitro", "setting": "[1]", "result": "limited"}]}, {"smiles": "C=CC(=O)N1CCC[C@@H](n2nc(-c3ccc(Oc4ccccc4)cc3)c3c(N)ncnc32)C1", "note": "[ibrutinib, reference compound]", "values": [{"measurement": "decrease in phospho-ERK", "setting": "[2]", "result": 2, "unit": "log"}, {"measurement": "cell cycle profiles", "setting": "[3]", "result": "did not alter"}, {"measurement": "cumulative incidence of progression", "setting": "[4]", "result": 19, "unit": "%"}, {"measurement": "cell death induced in vitro", "setting": "[1]", "result": "limited"}, {"measurement": "decrease in PD1 levels (ibrutinib vs vecabrutinib)", "setting": "[5]", "result": "larger decrease"}, {"measurement": "cell death", "setting": "[6]", "result": "15-20%"}]}, {"smiles": "NC(=O)[C@H]1CCN(c2ncnc(N)c2F)C[C@@H]1N1CCC[C@@H](Nc2cc(Cl)cc(C(F)(F)F)c2)C1=O", "note": "[vecabrutinib]", "values": [{"measurement": "decrease in phospho-ERK", "setting": "[2]", "result": 2, "unit": "log"}, {"measurement": "responses for all proteins compared to those to ibrutinib", "setting": "[2]; WT cells", "result": "deeper or similar responses"}, {"measurement": "cell cycle profiles", "setting": "[3]", "result": "did not alter"}, {"measurement": "BCR pathway (phosphorylation of BTK, ERK, and S6) signaling", "setting": "[7]", "result": "inhibited"}, {"measurement": "IC50", "setting": "[8]", "result": "13 ± 6", "unit": "nM"}, {"measurement": "S727 phosphorylation on STAT3", "setting": "[5]; WT and mutant cell lines", "result": "decreased"}, {"measurement": "Y705 phosphorylation on STAT3", "setting": "[5]; WT and mutant cell lines", "result": "decreased"}, {"measurement": "phospho-S6K", "setting": "[5]; all three cell types, compared to ibrutinib", "result": "profoundly decreased"}, {"measurement": "cleaved caspase 7", "setting": "[5]; all transduced cell lines", "result": "increased"}, {"measurement": "tolerability", "setting": "[9]", "result": "well-tolerated"}, {"measurement": "cell death", "setting": "[6]", "result": "15-20%"}]}]}
